Reference: PubChem BioAssay AID1963424 (Molecular Pharmacology Branch, DTP, NCI, 2024)

Test system: 327498-153-R-J2-PDC complex spheroid growth, % test/control
Test: Anticancer human tumor 327498-153-R-J2-PDC patient-derived uterine carcinosarcoma cell line growth inhibition [Asc]
Conditions: for IC50: curve of first compound; for viability, T/C: stronger effect = lower value
Procedure: Multicellular complex tumor spheroid response to apoptosis pathway targeting inhibitors Alrizomadlin, Pelcitoclax, and Dasminapant in combination with a variety of drugs and investigational agents in selected tumor cell lines
The MDM2 inhibitor alrizomadlin, the Bcl-2/Bcl-xL inhibitor pelcitoclax, and the IAPs inhibitor dasminapant were evaluated both individually and in combination with standard of care and investigational anticancer small molecules within a complex spheroid model of solid tumors. . Complex spheroids include a stromal component modeled by human endothelial cells (HUVEC) and fibroblasts modeled by human mesenchymal stem cells (MSCs). The concentration ranges selected for each drug and investigational agent were based upon clinically achievable concentrations if the clinical Cmax of the agent was known.
Compounds. The drugs and investigational agents: alrizomadlin (APG-115; NSC831270), pelcitoclax (APG-1252; NSC835773), dasminapant (APG-1387;NSC834197), TAK-243 (NSC785004), copanlisib (NSC809693), olaparib (NSC753686), talazoparib (NSC767125), cobimetinib (NSC 768068), eltanexor (KPT-8602, NSC 794443), abemaciclib (NSC 768073), sotorasib (NSC818433), adagrasib (NSC 831453), MRTX-1133 (NSC 836407), Iadademestat (ORY1001, NSC 806812), and RMC-4630 (NSC839698), were obtained from the NCI Developmental Therapeutics Program Chemical Repository. The FDA-approved anticancer drug set is available from the Developmental Therapeutics Program at https://dtp.cancer.gov/organization/dscb/obtaining/available plates.htm. […] The stock solutions were prepared in dimethyl sulfoxide (DMSO, Sigma-Aldrich, St. Louis, MO, cat. D2650) at 800-fold the tested concentration and stored at -70 degrees C prior to their use. All drugs and investigational agents were tested over a range starting from a high concentration at or near the clinical Cmax and decreasing in half-log increments. If the clinical Cmax for an agent had not been determined, the highest concentration tested was 10 microM.
The patient-derived cancer (PDC) cell lines include five colon adenocarcinomas: 186277-243-T-J2-PDC, 616215-338-R-J1-PDC, 439559-082-T-J2-PDC, 463943-066-T-J2-PDC, and 519858-162-T-J1-PDC; three pancreatic carcinomas: 323965-272-R-J2-PDC, 521955-158-R6-J3-PDC, and 521955-158-R2-J5-PDC; two uterine sarcomas: 327498-152-R-J2-PDC and 993429-296-R-J1-PDC; two rhabdomyosarcomas: 755483-174-R-J1-PDC and 772245-204-R-J1-PDC; two soft tissue sarcomas: 126254-015-R-J1-PDC and 494315-158-R-J1-PDC; two malignant fibrous histiocytomas: 317291-083-R-J1-PDC and 596521-263-R-J1-PDC; two breast carcinomas: 171881-019-R-J1-PDC and 885512-296-R-J2-PDC; and one ovarian carcinoma: 6556581-035-R-J-PDC were obtained from the NCI PDMR, (https://pdmr.cancer.gov). The established cell lines HSSY-2 synovial sarcoma (RRID:CVCL 8719), SYO-1 synovial sarcoma (RRID:CVCL_7146), MPNST malignant peripheral neural sheath tumor were obtained from the Sloan Kettering Institute. The following established cell lines were purchased from the American Type Culture Collection (ATCC, Manassas, VA), Sor the received from the NCI repository:, PANC-1 pancreatic carcinoma (CRL-1469, RRID:CVCL_0480), OVCAR-5 ovarian carcinoma (RRID:CVCL_1628), OVCAR-8 ovarian carcinoma (RRID:CVCL_1629), , MCF-7 breast carcinoma (CRL-12584, RRID:CVCL_0031), MDA-MB-231 breast carcinoma (CRL-12532, RRID:CVCL_0062), NCI-H1876 small cell lung carcinoma (CRL-5902, RRID:CVCL_1503), NCI-H510A small cell lung carcinoma (HTB-184, RRID:CVCL_1565), NCI-H1417 (CRL-5869, RRID:CVCL_1469), and NCI-H196 small cell lung carcinoma (CRL-5823, RRID:CVCL_1509). Dr. Peter Houghton (Greehey Children's Cancer Research Institute, University of Texas Health Science Center, San Antonio, TX) provided Rh-18 rhabdomyosarcoma (RRID:CVCL_1659). Pooled donor human umbilical vein endothelial cells (HUVEC, Lonza, cat. CC-2519) and human mesenchymal stem cells (hMSC, Lonza, cat. PT-2501) were purchased from Lonza (Walkersville, MD).
Cell Culture. […]

[1] = second compound 0.03 µM, first compound 0.00316 µM
[2] = second compound 0.03 µM, first compound 0.01 µM
[3] = second compound 0.03 µM, first compound 0.0316 µM
[4] = second compound 0.03 µM, first compound 0.1 µM
[5] = second compound 0.0949 µM, first compound 0.00316 µM
[6] = second compound 0.0949 µM, first compound 0.01 µM
[7] = second compound 0.0949 µM, first compound 0.0316 µM
[8] = second compound 0.0949 µM, first compound 0.1 µM
[9] = second compound 0.3 µM, first compound 0.00316 µM
[10] = second compound 0.3 µM, first compound 0.01 µM
[11] = second compound 0.3 µM, first compound 0.0316 µM
[12] = second compound 0.3 µM, first compound 0.1 µM
[13] = second compound 0.949 µM, first compound 0.00316 µM
[14] = second compound 0.949 µM, first compound 0.01 µM
[15] = second compound 0.949 µM, first compound 0.0316 µM
[16] = second compound 0.949 µM, first compound 0.1 µM
[17] = second compound 3 µM, first compound 0.00316 µM
[18] = second compound 3 µM, first compound 0.01 µM
[19] = second compound 3 µM, first compound 0.0316 µM
[20] = second compound 3 µM, first compound 0.1 µM
[21] = second compound 0.03 µM, first compound 0.316 µM
[22] = second compound 0.03 µM, first compound 1 µM
[23] = second compound 0.0949 µM, first compound 0.316 µM
[24] = second compound 0.0949 µM, first compound 1 µM
[25] = second compound 0.3 µM, first compound 0.316 µM
[26] = second compound 0.3 µM, first compound 1 µM
[27] = second compound 0.949 µM, first compound 0.316 µM
[28] = second compound 0.949 µM, first compound 1 µM
[29] = second compound 3 µM, first compound 0.316 µM
[30] = second compound 3 µM, first compound 1 µM
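Further: spheroids exposed to compound for 7 days after 3 days of growth.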
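Wherever viability, T/C is given: 100% = DMSO vehicle control wells.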

IC50 (second compound 0.03 µM) [µM]	IC50 (second compound 0.0949 µM) [µM]	IC50 (second compound 0.3 µM) [µM]	IC50 (second compound 0.949 µM) [µM]	IC50 (second compound 3 µM) [µM]	Structure (SMILES)	viability, T/C [1] [%]	viability, T/C [2] [%]	viability, T/C [3] [%]	viability, T/C [4] [%]	viability, T/C [5] [%]	viability, T/C [6] [%]	viability, T/C [7] [%]	viability, T/C [8] [%]	viability, T/C [9] [%]	viability, T/C [11] [%]	viability, T/C [12] [%]	viability, T/C [15] [%]	viability, T/C [16] [%]	viability, T/C [19] [%]	viability, T/C [20] [%]	further results
0.00609	0.00266	< 0.000316	< 0.000316	< 0.000316	Cn1ncnc1[C@H]1c2n[nH]c(=O)c3cc(F)cc(c23)N[C@@H]1c1ccc(F)cc1 + CCN1C(C(=O)NC23CCC(C(=O)O)(CC2)CC3)C(c2cccc(Cl)c2F)C2(C(=O)Nc3cc(Cl)ccc32)C12CCCCC2	70.8	34.8	12.6	6.28	45	17.4	7.19	4.65	16	3.88	3.44	2.28	1.93	1.49	2.35	viability, T/C (second compound 0.03 µM, first compound 0.000316 µM): 99.9%; viability, T/C (second compound 0.03 µM, first compound 0.001 µM): 90%; viability, T/C (second compound 0.0949 µM, first compound 0.000316 µM): 75.8%; viability, T/C (second compound 0.0949 µM, first compound 0.001 µM): 73.4%; viability, T/C (second compound 0.3 µM, first compound 0.000316 µM): 45.2%; viability, T/C (second compound 0.3 µM, first compound 0.001 µM): 28.2%; viability, T/C [10]: 6.36%; viability, T/C (second compound 0.949 µM, first compound 0.000316 µM): 5.73%; viability, T/C (second compound 0.949 µM, first compound 0.001 µM): 7.29%; viability, T/C [13]: 3.58%; viability, T/C [14]: 1.98%; viability, T/C (second compound 3 µM, first compound 0.000316 µM): 3.13%; viability, T/C (second compound 3 µM, first compound 0.001 µM): 8.85%; viability, T/C [17]: 2.79%; viability, T/C [18]: 2.59%
1.72	0.592	< 0.0316	< 0.0316	< 0.0316	O=C(c1cc(Cc2n[nH]c(=O)c3ccccc23)ccc1F)N1CCN(C(=O)C2CC2)CC1 + CCN1C(C(=O)NC23CCC(C(=O)O)(CC2)CC3)C(c2cccc(Cl)c2F)C2(C(=O)Nc3cc(Cl)ccc32)C12CCCCC2	–	–	94.9	83.6	–	–	74.5	63	–	33.6	29.5	9.62	5.99	2.94	3.36	viability, T/C [21]: 80.9%; viability, T/C [22]: 63.6%; viability, T/C (second compound 0.03 µM, first compound 3.16 µM): 35%; viability, T/C (second compound 0.03 µM, first compound 10 µM): 9.54%; viability, T/C [23]: 61%; viability, T/C [24]: 42.8%; viability, T/C (second compound 0.0949 µM, first compound 3.16 µM): 14.8%; viability, T/C (second compound 0.0949 µM, first compound 10 µM): 5.01%; viability, T/C [25]: 20.9%; viability, T/C [26]: 17.4%; viability, T/C (second compound 0.3 µM, first compound 3.16 µM): 5.47%; viability, T/C (second compound 0.3 µM, first compound 10 µM): 3.11%; viability, T/C [27]: 4.91%; viability, T/C [28]: 4.88%; viability, T/C (second compound 0.949 µM, first compound 3.16 µM): 3.33%; viability, T/C (second compound 0.949 µM, first compound 10 µM): 2.8%; viability, T/C [29]: 2.53%; viability, T/C [30]: 3.39%; viability, T/C (second compound 3 µM, first compound 3.16 µM): 2.26%; viability, T/C (second compound 3 µM, first compound 10 µM): 2.33%
0.227	0.0478	< 0.00316	< 0.00316	< 0.00316	O=C(c1ccc(F)c(F)c1Nc1ccc(I)cc1F)N1CC(O)([C@@H]2CCCCN2)C1 + CCN1C(C(=O)NC23CCC(C(=O)O)(CC2)CC3)C(c2cccc(Cl)c2F)C2(C(=O)Nc3cc(Cl)ccc32)C12CCCCC2	98.2	85	70.5	64.5	67	61.4	55.3	41.3	37.2	17.3	15.7	4.91	4.3	2.1	1.08	viability, T/C [21]: 50.3%; viability, T/C [22]: 16%; viability, T/C [23]: 28.4%; viability, T/C [24]: 8.51%; viability, T/C [10]: 29.1%; viability, T/C [25]: 11.1%; viability, T/C [26]: 3.71%; viability, T/C [13]: 8.99%; viability, T/C [14]: 6.26%; viability, T/C [27]: 2.73%; viability, T/C [28]: 1.43%; viability, T/C [17]: 3.41%; viability, T/C [18]: 1.87%; viability, T/C [29]: 1.35%; viability, T/C [30]: 0.86%
